According to a melting point compilation (Tetko et al.; mined from patent text by program, amines drawn as free bases though some values may be those of a salt):

`COC(=O)c1sc(S(C)(=O)=O)cc1OCc1ccccc1` gave a melting point of 125 to 126 °C. For `Cc1cc(N)cc(C)c1-c1ccc(-c2c(C)cc(N)cc2C)o1`, the melting point was 144 to 146 °C. Work on `CCn1c(=O)n(CC)c2cc3c(N4CCN(C(=O)Nc5ccc(Oc6ccccc6)cc5)CC4)ncnc3cc21` yielded a melting point of 168 to 169 °C. `CC(Cc1ccc(O)cn1)NC1CC1` (stereo not drawn) showed a melting point of 161 °C. Work on `CC(C)N1OCC(=Cc2cc(C(C)(C)C)c(O)c(C(C)(C)C)c2)C1=O` yielded a melting point of 178 to 180 °C. With `CC(C)c1cc(S(=O)(=O)Cl)c(C(C)C)cc1Br` the melting point was 80.5 to 83 °C. Compound `CC(=O)Nc1ccc(Sc2c(NCc3ccccc3)cc(C(=O)O)cc2S(N)(=O)=O)cc1` has a melting point of 255 to 258 °C. In the case of `COC(=O)c1ccc(-c2ccc3c(c2)C=C(C(=O)Nc2ccc(CN(C)C4CCOCC4)cc2)CCC3)cc1`, the melting point is reported as 176 to 183 °C. With `Nc1cc(-n2cccc2)ccc1Nc1cccc(-c2ccccn2)c1` the melting point was 135 to 140 °C. `C#CCOc1ccc(C2c3[nH]c4ccccc4c3CC(C(=O)OC)N2C(=O)CCl)cc1` (stereo not drawn) gave a melting point of 218 °C. `CCC(=O)NS(=O)(=O)c1ccc2c3c(cc([N+](=O)[O-])c2c1)NCC3CCl` (stereo not drawn) gave a melting point of 173 to 177 °C. For `CCc1cc(CC)c(-c2c(O)c(C)nn(C)c2=O)c(CC)c1I`, the melting point was 217 to 219 °C. In the case of `CCOC(=O)c1ncn(C2OC(COC(=O)c3ccccc3)C(OC(=O)c3ccccc3)C2OC(=O)c2ccccc2)c1C(=O)OCC` (stereo not drawn), the melting point is reported as 134 to 136 °C. For `OCc1c(F)ccc(-n2cccc2)c1F`, the melting point was less than 60 °C. `CC(Oc1ccc(Oc2cnc3cc(Cl)ccc3n2)cc1)C(=O)Nc1ccc(OC(F)(F)C(Cl)(Cl)Cl)cc1` (stereo not drawn) gave a melting point of 139 to 141 °C. For `Cc1cccc(C(=O)c2ccc(OCC(=O)O)c(Cl)c2Cl)c1`, the melting point was 173 to 175 °C. With `N#CC(SCCc1ccc2c(c1)OCO2)C(=O)O` (stereo not drawn) the melting point was 106 to 107 °C. `CCCOCCOc1ccc(OCC(O)CNCCNc2cc(=O)n(C)c(=O)n2C)cc1` (stereo not drawn) showed a melting point of 125 °C. `COC(C)(C)C(=O)C(Oc1ccc(Cl)cc1Cl)n1cncn1` (stereo not drawn) gave a melting point of 53 to 54 °C. `O=C1NC(=O)C(Cc2cc(=O)n(Cc3ccc(Cl)cc3)c3ccccc23)S1` (stereo not drawn) showed a melting point of 142 to 144 °C. With `COc1c([N+](=O)[O-])cc(C(C)=O)c2c1CCCC2` the melting point was 76 to 77 °C. `CC[C@H](C)C(OCc1ccccc1)[C@H]1[C@H]([N+](=O)[O-])[C@H](c2ccccc2)N[C@@H]1C(=O)NCCC(=O)O` (stereo partly drawn) gave a melting point of 140 to 141 °C. Compound `COC(=O)Cc1ccc(C(=O)CN2CCN(c3ccncc3)CC2)cc1` has a melting point of 127 to 129 °C. Compound `Cc1cccc(-c2nc(O)c(C)s2)c1Cl` has a melting point of 183 to 184 °C. `COc1ccc(C(=O)c2cccc(C(F)(F)F)c2F)c(OC)c1` gave a melting point of 79 to 82 °C. `CC(C)(C)OC(=O)N1CCN(C(=O)c2cc(C(F)(F)F)cc(C(F)(F)F)c2)[C@H](Cc2c[nH]c3ccccc23)C1` showed a melting point of 155 to 156 °C. Compound `O=C(Nc1ccc2c(c1)OCC(=S)N2)C(=O)N1CCC(Cc2ccccc2)CC1` has a melting point of 193 to 196 °C. Compound `CC(C)n1nnc2c(NCc3ccccc3O)nc(N[C@H]3CC[C@H](N)CC3)nc21` has a melting point of 120 to 123 °C. For `CN(N)c1nc2ccccc2s1`, the melting point was 137 to 139 °C. For `CCCCCCCCCCOc1ccccc1-c1nc(N)c(N=O)c(=O)[nH]1`, the melting point was 144 to 146 °C. Compound `CC(C)c1ccc(NC(=O)C2CCCc3ccccc32)cc1` (stereo not drawn) has a melting point of 163 °C. Compound `O=C(NC1CC1)c1nccnc1Oc1cccc(C(F)(F)F)c1` has a melting point of 74 to 77 °C. For `CC(=O)Nc1ccccc1C(=O)Nc1ccc(N2CCN3CCC2CC3)cc1`, the melting point was 191 °C. `Cc1noc(NC(=O)N2CCN(c3nc(-c4cccc(Cl)c4)cs3)CC2)c1C` gave a melting point of 201 to 202 °C. Work on `CC(=O)N1CC(CCN2CC=C(c3c[nH]c4cc(Cl)ccc34)CC2)c2cc(F)ccc21` (stereo not drawn) yielded a melting point of 183 to 185 °C. In the case of `O=C1c2ccccc2C(=O)N1C(CCCBr)c1ccccc1` (stereo not drawn), the melting point is reported as 88 to 91 °C. Work on `CCc1cc2nccc(-c3cccnc3)n2n1` yielded a melting point of 103 to 104 °C. Work on `CN(C)C=NS(=O)(=O)c1cccc(Br)c1` yielded a melting point of 122 °C.
